pIC50: −log10 of the molar value.
What was measured:
Trypanosoma cruzi [1] = experiment: Growth inhibition of epimastigote form of Trypanosoma cruzi CL-B5 at 64 uM after 72 hrs by lacZ reporter gene assay; assay type: functional; conditions: CL-B5, 72 h, read-out: GI
Trypanosoma cruzi [2] = experiment: Growth inhibition of epimastigote form of Trypanosoma cruzi CL-B5 at 128 uM after 72 hrs by lacZ reporter gene assay; assay type: functional; conditions: CL-B5, 72 h, read-out: GI
Trypanosoma cruzi [3] = experiment: Growth inhibition of epimastigote form of Trypanosoma cruzi CL-B5 at 256 uM after 72 hrs by lacZ reporter gene assay; assay type: functional; conditions: CL-B5, 72 h, read-out: GI
[4] = Growth inhibition of mouse J774 cells at 256 uM after 24 hrs by resazurin reduction assay; assay type: cell-based; conditions: read-out: GI
[5] = Growth inhibition of mouse J774 cells at 128 uM after 24 hrs by resazurin reduction assay; assay type: cell-based; conditions: read-out: GI
[6] = Growth inhibition of mouse J774 cells at 64 uM after 24 hrs by resazurin reduction assay; assay type: cell-based; conditions: read-out: GI
Trypanosoma cruzi [7] = experiment: Growth inhibition of epimastigote form of Trypanosoma cruzi CL-B5 after 72 hrs by lacZ reporter gene assay; assay type: functional, organism-based; conditions: CL-B5, 72 h

SMILES | inhibition of growth at 64 µM (Trypanosoma cruzi [1]) [%] | inhibition of growth at 128 µM (Trypanosoma cruzi [2]) [%] | inhibition of growth at 256 µM (Trypanosoma cruzi [3]) [%] | inhibition at 24 h, 256 µM [4] [%] | inhibition at 24 h, 128 µM [5] [%] | inhibition at 24 h, 64 µM [6] [%] | pIC50 (Trypanosoma cruzi [7])
CC(C)Oc1c2cc([N+](=O)[O-])ccc2nn1-c1ccccc1 | 20.7 | 11.3 | 6.26 | – | – | – | –
COc1nn(-c2ccccc2)c2ccc([N+](=O)[O-])cc12 | 21.4 | 40.3 | 56.3 | 27.1 | – | – | –
O=[N+]([O-])c1ccc2nn(Cc3ccccc3)c(OCc3ccccc3)c2c1 | 51.8 | 43.5 | 34.5 | 64.7 | 15.2 | – | –
CCCCOc1c2cc([N+](=O)[O-])ccc2nn1Cc1ccccc1 | 24.6 | 48.5 | 54.7 | 26.3 | – | – | –
CC(C)Oc1c2cc([N+](=O)[O-])ccc2nn1Cc1ccccc1 | 56.2 | 67.1 | 70.8 | 41.4 | – | – | –
CC(C)n1c2ccc([N+](=O)[O-])cc2c(=O)n1Cc1ccc2ccccc2c1 | 10.7 | 13 | 24.2 | 0 | 0 | 0 | –
CCCCCOc1c2cc([N+](=O)[O-])ccc2nn1Cc1ccccc1 | 53.4 | 78.8 | 79.3 | 0 | 0 | 0 | –
Cn1c2ccccc2c(=O)n1Cc1ccccc1 | 28 | 36.6 | 55.8 | – | – | – | –
CC1CS(=O)(=O)CCN1/N=C/c1ccc([N+](=O)[O-])o1 (stereo not given) [NIFURTIMOX] | 91.6 | 97.1 | 100 | 25 | 5 | 0 | 5.44
COc1c2cc([N+](=O)[O-])ccc2nn1C | 67.8 | 79.2 | 78.7 | 21.6 | 6.57 | 0 | –
Cn1c2ccc([N+](=O)[O-])cc2c(=O)n1CCc1ccccc1 | 49.6 | 29.1 | 23.4 | 0 | 0 | 0 | –
Cn1c2ccc([N+](=O)[O-])cc2c(=O)n1Cc1ccccc1 | 83.3 | 86 | 91.7 | 0 | 29 | 15.2 | –
CCCOc1c2cc([N+](=O)[O-])ccc2nn1Cc1ccc2ccccc2c1 | 61.2 | 16.4 | 22.5 | 0 | 28.5 | 22.4 | –
CC(C)n1c2ccc([N+](=O)[O-])cc2c(=O)n1-c1ccccc1 | 28.3 | 54.7 | 84 | 16.8 | 0 | 0 | –
Cn1c(=O)c2cc([N+](=O)[O-])ccc2n1C | 42.7 | 42.8 | 68 | 0 | 0 | 11.4 | –
Cn1c2ccc([N+](=O)[O-])cc2c(=O)n1Cc1ccc2ccccc2c1 | 42.5 | 40.9 | 37.7 | 0 | 0 | 0 | –
CCCCCn1c2ccc([N+](=O)[O-])cc2c(=O)n1Cc1ccccc1 | 85.2 | 90 | 90.2 | 81 | 71.8 | 54.1 | –
CCCOc1c2cc([N+](=O)[O-])ccc2nn1C | 27.4 | 16.9 | 91.2 | 62.4 | 35.3 | 0 | –

SMILES | inhibition of growth at 64 µM (Trypanosoma cruzi [1]) [%] | inhibition of growth at 128 µM (Trypanosoma cruzi [2]) [%] | inhibition of growth at 256 µM (Trypanosoma cruzi [3]) [%] | inhibition at 24 h, 256 µM [4] [%] | inhibition at 24 h, 128 µM [5] [%] | inhibition at 24 h, 64 µM [6] [%] | pIC50 (Trypanosoma cruzi [7])
Cn1c(=O)c2cc([N+](=O)[O-])ccc2n1-c1ccccc1 | 14.2 | 19.4 | 26.6 | 43.1 | – | – | –
CC(C)Oc1c2cc([N+](=O)[O-])ccc2nn1Cc1ccc2ccccc2c1 | 76.5 | 76.6 | 63.7 | – | – | 26.5 | –
COc1c2cc([N+](=O)[O-])ccc2nn1Cc1ccccc1 | 48.3 | 38.1 | 21.2 | 6.83 | 0 | 0 | –
O=c1c2cc([N+](=O)[O-])ccc2n(Cc2ccccc2)n1Cc1ccccc1 | 74.5 | 83.7 | 69.2 | 57.9 | 64 | 9.77 | –
CCCn1c2ccc([N+](=O)[O-])cc2c(=O)n1C | 3.05 | 7.92 | 11.6 | 0 | 0 | 0 | –
O=C(Cn1ccnc1[N+](=O)[O-])NCc1ccccc1 [BENZNIDAZOLE] | 71 | 79.8 | 82 | 13 | 14.8 | 13 | 4.56
COc1c2cc([N+](=O)[O-])ccc2nn1Cc1ccc2ccccc2c1 | 27 | 35.6 | 72.5 | 9.31 | – | – | –
CCCn1c2ccc([N+](=O)[O-])cc2c(=O)n1Cc1ccc2ccccc2c1 | 78 | 70.4 | 41.9 | 15.5 | 11.9 | 0 | –
CCCn1c2ccc([N+](=O)[O-])cc2c(=O)n1-c1ccccc1 | 71.8 | 76.5 | 86.1 | 0 | 0 | 0 | –
CC(C)n1c2ccc([N+](=O)[O-])cc2c(=O)n1C | 7.45 | 10.5 | 13.2 | 0 | 0 | 0 | –
Cn1nc(OCCc2ccccc2)c2cc([N+](=O)[O-])ccc21 | 67 | 40.6 | 49.4 | 0 | 2.99 | 0 | –
Cn1nc(OCc2ccc3ccccc3c2)c2cc([N+](=O)[O-])ccc21 | 46.4 | 23.6 | 11.3 | – | 9 | 13.3 | –
Cn1c2ccc([N+](=O)[O-])cc2c(=O)n1-c1ccccc1 | 81.8 | 84.3 | 89.1 | 20.7 | 9.95 | 0 | –
Cn1c(=O)c2cc([N+](=O)[O-])ccc2n1Cc1ccccc1 | 39.8 | 70.3 | 80.6 | 6.33 | 6.91 | 0.55 | –
Cn1nc2ccc([N+](=O)[O-])cc2c1OCc1ccccc1 | 36.7 | 56.1 | 65.5 | 0 | 1.39 | 21.5 | –
CC(C)Oc1c2cc([N+](=O)[O-])ccc2nn1C | 71.5 | 70.5 | 71.9 | 20 | 19.2 | 6.34 | –
CCCOc1c2cc([N+](=O)[O-])ccc2nn1Cc1ccccc1 | 15.7 | 26.1 | 0 | 0 | 0 | 0 | –
COc1c2cc([N+](=O)[O-])ccc2nn1-c1ccccc1 | 0 | 0 | 2.81 | – | – | – | –

— ChEMBL document CHEMBL2150935, “Synthesis, biological evaluation and chemometric analysis of indazole derivatives. 1,2-Disubstituted 5-nitroindazolinones, new prototypes of antichagasic drug” (Eur J Med Chem, 2012)
